Measurements: US7879857B2, “6-substituted 2-quinolinones and 2-quinoxalinones as poly (adp-ribose) polymerase inhibitors” (Janssen Pharmaceutica NV, priority 2003, dated 2011)

What was measured:
PARP-1 enzyme [1] = molecular target: T1, PARP-1 enzyme (Homo sapiens, UniProt P09874); assay: In vitro Scintillation Proximity Assay (SPA) for PARP-1 inhibitory activity; type: biochemical; conditions: [3H]-NAD+ as ADP-ribosyl donor, biotinylated histones, nicked DNA; read-out: In vitro SPA pIC50 (converted)
T1 construct: made in house
T1 sequence (P09874 whole entry): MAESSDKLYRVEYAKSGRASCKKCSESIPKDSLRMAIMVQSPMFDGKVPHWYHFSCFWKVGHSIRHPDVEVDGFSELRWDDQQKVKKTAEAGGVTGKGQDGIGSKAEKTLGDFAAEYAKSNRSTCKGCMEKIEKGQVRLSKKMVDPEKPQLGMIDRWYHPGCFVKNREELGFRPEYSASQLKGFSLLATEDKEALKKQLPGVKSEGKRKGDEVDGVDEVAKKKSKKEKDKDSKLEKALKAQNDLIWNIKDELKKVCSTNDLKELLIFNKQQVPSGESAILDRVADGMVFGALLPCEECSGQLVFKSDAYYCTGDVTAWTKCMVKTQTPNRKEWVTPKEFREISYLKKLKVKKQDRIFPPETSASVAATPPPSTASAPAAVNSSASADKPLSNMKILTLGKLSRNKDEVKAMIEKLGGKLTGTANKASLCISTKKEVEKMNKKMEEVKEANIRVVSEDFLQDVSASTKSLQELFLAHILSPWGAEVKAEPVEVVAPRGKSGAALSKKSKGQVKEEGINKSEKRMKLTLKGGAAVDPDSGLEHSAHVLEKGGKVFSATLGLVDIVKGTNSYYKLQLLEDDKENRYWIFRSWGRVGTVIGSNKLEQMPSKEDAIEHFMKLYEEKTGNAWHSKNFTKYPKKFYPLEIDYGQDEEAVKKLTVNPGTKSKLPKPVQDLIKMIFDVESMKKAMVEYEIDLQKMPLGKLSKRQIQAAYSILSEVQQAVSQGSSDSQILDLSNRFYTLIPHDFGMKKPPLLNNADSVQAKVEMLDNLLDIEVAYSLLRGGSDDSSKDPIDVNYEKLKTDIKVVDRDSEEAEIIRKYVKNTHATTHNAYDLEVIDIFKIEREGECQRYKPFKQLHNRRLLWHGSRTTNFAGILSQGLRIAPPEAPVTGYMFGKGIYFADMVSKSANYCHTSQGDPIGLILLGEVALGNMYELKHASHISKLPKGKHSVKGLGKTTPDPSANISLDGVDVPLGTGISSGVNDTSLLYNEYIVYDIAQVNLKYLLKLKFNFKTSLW
Experimental: Pharmacological Example In Vitro Scintillation Proximity Assay (SPA) for PARP-1 Inhibitory Activity
Compounds of the present invention were tested in an in vitro assay based on SPA technology (proprietary to Amersham Phannacia Biotech).
In principle, the assay relies upon the well established SPA technology for the detection of poly(ADP-ribosyl)ation of biotinylated target proteins, i.e histones. This ribosylation is induced using nicked DNA activated PARP-1 enzyme and [^3H]-nicotinamide adenine dinucleotide ([^3H]-NAD^+) as ADP-ribosyl donor.
As inducer of PARP-1 enzyme activity, nicked DNA was prepared. For this, 25 mg of DNA (supplier: Sigma) was dissolved in 25 ml DNAse buffer (10 mM Tris-HCI, pH 7.4; 0.5 mg/ml Bovine Serum Albumine (BSA); 5 MM MgCl2.6H2O and 1 mM KCl) to which 50 μl DNAse solution (1 mg/ml in 0.15 M NaCl) was added. After an incubation of 90 min. at 37° C., the reaction was terminated by adding 1.45 g NaCl, followed by a further incubation at 58° C. for 15 min. The reaction mixture was cooled on ice and dialysed at 4° C. for respectively 1.5 and 2 hours against 1.51 of 0.2 M KCl, and twice against 1.51 of 0.01 M KCl for 1.5 and 2 h respectively. The mixture was aliquoted and stored at −20° C. Histones (1 mg/ml, type II-A, supplier: Sigma) were biotinylated using the biotinylation kit of Amersham and stored aliquoted at −20° C. A stock solution of 100 mg/ml SPA poly(vinyl toluene) (PVT) beads (supplier: Amersham) was made in PBS. A stock solution of [^3H]-NAD^+ was made by adding 120 μl of [^3H]-NAD^+ (0.1 mCi/ml, supplier: NEN) to 6 ml incubation buffer (50 mM Tris/HCl, pH 8; 0.2 mM DTT; 4 mM MgCl2). A solution of 4 mM NAD^+ (supplier: Roche) was made in incubation buffer (from a 100 mM stock solution in water stored at −20° C.). The PARP-1 enzyme was produced using art known techniques, i.e. cloning and expression of the protein starting from human liver cDNA. Information concerning the used protein sequence of the PARP-1 enzyme including literature references can be found in the Swiss-Prot database under primary accession number P09874. Biotinylated histones and PVT-SPA beads were mixed and pre-incubated for 30 min. at room temperature. PARP-1 enzyme (concentration was lot dependent) was mixed with the nicked DNA and the mixture was pre-incubated for 30 min. at 4° C. Equal parts of this histones/PVT-SPA beads solution and PARP-1 enzyme/DNA solution were mixed and 75 μl of this mixture together with 1 μl of compound in DMSO and 25 μl of [^3H]-NAD^+ was added per well into a 96-well microtiterplate. The final concentrations in the incubation mixture were 2 μg/ml for the biotinylated histones, 2 mg/ml for the PVT-SPA beads, 2 μg/ml for the nicked DNA and between 5-10 μg/ml for the PARP-1 enzyme. After incubation of the mixture for 15 min. at room temperature, the reaction was terminated by adding 100 μl of 4 mM NAD^+ in incubation buffer (final concentration 2 mM) and plates were mixed.
The beads were allowed to sediment for at least 15 min. and plates transferred to a TopCountNXTT™ (Packard) for scintillation counting, values were expressed as counts per minute (cpm). For each experiment, controls (containing PARP-1 enzyme and DMSO without compound), a blank incubation (containing DMSO but no PARP-1 enzyme or compound) and samples (containing PARP-1 enzyme and compound dissolved in DMSO) were run in parallel. All compounds tested were dissolved and eventually further diluted in DMSO. […] The control sample represented maximal PARP-1 enzyme activity. For each sample, the amount of cpm was expressed as a percentage of the mean cpm value of the controls. When appropriate, IC50-values (concentration of the drug, needed to reduce the PARP-1 enzyme activity to 50% of the control) were computed using linear interpolation between the experimental points just above and below the 50% level. Herein the effects of test compounds are expressed as pIC50(the negative log value of the IC50-value). […]

PARP-1 enzyme [2] = molecular target: T1, PARP-1 enzyme; assay: In vitro filtration assay for PARP-1 inhibitory activity; type: biochemical; conditions: [32P]-NAD as ADP-ribosyl donor, histones, nicked DNA; read-out: In vitro filtration assay pIC50 (converted)
Experimental: In Vitro Filtration Assay for PARP-1 Inhibitory Activity
Compounds of the present invention were tested in an in vitro filtration assay assessing PARP-1 activity (triggered in the presence of nicked DNA) by means of its histone poly (ADP-ribosyl)ation activity using [^32P]-NAD as ADP-ribosyl donor. The radioactive ribosylated histones were precipitated by trichIoroacetic acid (TCA) in 96-well filterplates and the incorporated [^32P] measured using a scintillation counter
A mixture of histones (stock solution: 5 mg/ml in H2O), NAD^+ (stock solution: 100 mM in H2O), and [^32P]-NAD^+ in incubation buffer (50 mM Tris/HCl, pH 8; 0.2 mM DTT; 4 mM MgCl2) was made. A mixture of the PARP-1 enzyme (5-10 μg/ml) and nicked DNA was also made. The nicked DNA was prepared as described in the in vitro SPA for PARP-1 inhibitory activity. Seventy-five μl of the PARP-1 enzyme/DNA mixture together with 1 μl of compound in DMSO and 25 μl of histones-NAD^+/[^32P]-NAD^+ mixture was added per well of a 96-well filterplate (0.45 μm, supplier Millipore). The final concentrations in the incubation mixture were 2 μg/ml for the histones, 0.1 mM for the NAD^+, […] (0.5 μC) for the [^32P]-NAD^+ and 2 μg/ml for the nicked DNA. Plates were incubated for 15 min. at room temperature and the reaction was terminated by the addition of 10 μl ice cold 100% TCA followed by the addition of 10 μl ice-cold BSA solution (1% in H2O). The protein fraction was allowed to precipitate for 10 min. at 4° C. and plates were vacuum filtered. The plates were subsequently washed with, for each well, 1 ml of 10% ice cold TCA, 1 ml of 5% ice cold TCA and 1 ml of 5% TCA at room temperature. Finally 100 μl of scintillation solution (Microscint 40, Packard) was added to each well and the plates were transferred to a TopCountNXT™ (supplier: Packard) for scintillation counting and values were expressed as counts per minute (cpm). For each experiment, controls (containing PARP-1 enzyme and DMSO without compound), a blank incubation (containing DMSO but no PARP-1 enzyme or compound) and samples (containing PARP-1 enzyme and compound dissolved in DMSO) were run in parallel. All compounds tested were dissolved and eventually further diluted in DMSO. […] The control sample represented maximal PARP-1 enzyme activity. For each sample, the amount of cpm was expressed as a percentage of the mean cpm value of the controls. When appropriate, IC50-values (concentration of the drug, needed to reduce the PARP-1 enzyme activity to 50% of the control) were computed using linear interpolation between the experimental points just above and below the 50% level. Herein the effects of test compounds are expressed as pIC50 (the negative log value of the IC50-value). As a reference compound, 4-amino-1,8-naphthalimide was included to validate the filtration assay.

[3] = rabbits, cited from earlier work
[4] = rats with hapten-induced colitis; cited from earlier work

Structure (SMILES) | IC50 (PARP-1 enzyme [1]) [nM] | IC50 (PARP-1 enzyme [2]) [nM] | further results
CCc1cc2cc(C(O)C(CC)CC)ccc2[nH]c1=O (stereo not shown) [Compound 5] | 156 | 638 | 
NC(=O)c1cccc(N)c1 [3-amino-benzamide] |  |  | reduction in infarct size in the heart ([3]; single injection 10 mg/kg, one minute before occlusion or one minute before reperfusion): 32-42%; effect on inflammatory response, morphology and energetic status of the distal colon [4]: reduced the inflammatory response and restored the morphology and the energetic status of the distal colon
CCc1nc2cc(C(=O)C(C)C)ccc2[nH]c1=O [Compound 9] | 743 |  | 
CCc1cc2cc(CCNCCCN(C)Cc3ccccc3)ccc2[nH]c1=O [Compound 12] | 687 |  | 
CCc1nc2cc(C(NCCN3CCC(C(=O)c4ccc(F)cc4)CC3)C(C)C)ccc2[nH]c1=O (stereo not shown) [Compound 10] | 740 |  | 
Cc1cc2cc(C(CCc3ccccc3)NC=O)ccc2[nH]c1=O (stereo not shown) [Compound 6] | 769 | 10000 | melting point: 221.3 °C
CCc1nc2cc(C(NCCCN3CCCCC3)C(C)C)ccc2[nH]c1=O (stereo not shown) [Compound 13] | 368 |  | 
Cc1cc2cc(C(CCN(C)C)c3ccco3)ccc2[nH]c1=O (stereo not shown) [Compound 4] | 1040 | 7570 | 
CCc1cc2cc(CCNCCCN3CCCCC3)ccc2[nH]c1=O [Compound 11] | 327 |  | 
CCc1cc2cc(C(O)CN(C)C)ccc2[nH]c1=O (stereo not shown) [Compound 7] | 212 | 773 | melting point: 131 °C
Cc1cc2cc(C(NCCCN3CCCCC3)C(C)C)ccc2[nH]c1=O (stereo not shown) [Compound 15] | 1260 | 3620 | 
CCc1cc2cc(C(O)C3CC=CCC3)ccc2[nH]c1=O (stereo not shown) [Compound 17] | 198 | 1470 | 
Cc1cc2cc(C(O)(CCN(C)C)c3ccccn3)ccc2[nH]c1=O (stereo not shown) [Compound 16] | 470 | 2160 | 
Oc1cccc2c(O)nccc12 [1,5-dihydroxyisoquinoline] |  |  | reduction in infarct size ([3]; single injection 1 mg/kg): 38-48%
CCOC(=O)Cc1ccc2[nH]c(=O)c(CC)nc2c1 [Compound 8] | 975 |  | 
CCc1cc2cc(C(=O)CN(C)C)ccc2[nH]c1=O [Compound 3] | 259 | 2590 | melting point: 180 °C
Cc1cc2cc(C(C)NC=O)ccc2[nH]c1=O (stereo not shown) [Compound 18] | 1020 | 6370 | 

Continued, in another order:

IC50 (PARP-1 enzyme [1]) [nM] | IC50 (PARP-1 enzyme [2]) [nM] | Structure (SMILES) | further results
746 |  | CCc1nc2cc(C(O)C(C)C)ccc2[nH]c1=O (stereo not shown) [Compound 19] | 
221 |  | CCc1nc2cc(C(NC=O)C(C)C)ccc2[nH]c1=O (stereo not shown) [Compound 1] | melting point: 204 °C
227 | 1100 | CCc1nc2cc(C(C(C)C)n3ccnc3)ccc2[nH]c1=O (stereo not shown) [Compound 21, 3-ethyl-6-[1-(1H-imidazol-1-yl)-2-methylpropyl]-2(1H)-quinoxalinone] | 
499 |  | CCc1nc2cc(C(NCCCN(C)Cc3ccccc3)C(C)C)ccc2[nH]c1=O (stereo not shown) [Compound 14] | 
438 | 2280 | CCc1nc2cc(C(C(C)C)n3cncn3)ccc2[nH]c1=O (stereo not shown) [Compound 20, 3-ethyl-6-[2-methyl-1-(1H-1,2,4-triazol-1-yl)propyl]-2(1H)-quinoxalinone] | 
1430 | 7130 | CC(C)C(c1ccc2[nH]c(=O)c(-c3ccsc3)nc2c1)n1cncn1 (stereo not shown) [Compound 23, 6-[2-methyl-1-(1H-1,2,4-triazol-1-yl)propyl]-3-(thienyl)-2(1H)-quinoxalinone] | 
1000 | 4630 | CCCCC(c1ccc2[nH]c(=O)c(C)nc2c1)n1ccnc1 (stereo not shown) [Compound 25, 6-[1-(1H-imidazol-1-yl)pentyl]-3-methyl-2(1H)-quinoxalinone] | 
838 | 4330 | CC(C)C(c1ccc2[nH]c(=O)c(-c3cccs3)nc2c1)n1cncn1 (stereo not shown) [Compound 22, 6-[2-methyl-1-(1H-1,2,4-triazol-1-yl)propyl]-3-(2-thienyl)-2(1H)-quinoxalinone] | 
522 | 5350 | Cc1cc2cc(C(C(C)C)n3ccnc3)ccc2[nH]c1=O (stereo not shown) [Compound 2] | melting point: 211.4 °C
561 | 4860 | CC(C)C(c1ccc2[nH]c(=O)c(-c3ccsc3)nc2c1)n1ccnc1 (stereo not shown) [Compound 24, 6-[1-(1H-imidazol-1-yl)-2-methylpropyl]-3-(3-thienyl)-2(1H)-quinoxalinone] | 
